Experimental data taken from patent US8506927B2, “Pegylated fluorobenzamide analogues, their synthesis and use in diagnostic imaging” (Washington University, priority 2011, dated 2013).

How the values were obtained:
[1] = molecular target: T1, σ1 receptor (Cavia porcellus, UniProt Q60492); assay: σ1 receptor binding assay, [3H](+)-pentazocine competition; conditions: guinea pig brain membrane homogenates, ~5 nM [3H](+)-pentazocine; mean ± SEM; read-out: σ1 binding affinity (Ki)
T1 construct: using guinea pig brain membrane homogenates (˜300 μg protein); from tissue; host or cells: guinea pig brain membrane homogenate
T1 sequence (Q60492 whole entry): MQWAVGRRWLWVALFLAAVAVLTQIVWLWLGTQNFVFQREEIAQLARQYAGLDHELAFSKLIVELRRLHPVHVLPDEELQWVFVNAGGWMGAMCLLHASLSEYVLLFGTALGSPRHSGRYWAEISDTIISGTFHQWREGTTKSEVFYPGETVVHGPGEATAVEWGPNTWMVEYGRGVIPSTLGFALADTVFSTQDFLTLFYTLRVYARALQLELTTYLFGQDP
Protocol: (§1) This example illustrates in vitro binding studies with the compounds of the present teachings. In this example, in vitro binding studies can be conducted in order to measure the affinity of the target compounds for σ1 and σ2 receptors.
(§2) In these assays, pegylated sigma ligands of the present teachings can be dissolved in N,N-dimethylformamide (DMF), DMSO or ethanol, and can then be diluted in 50 mM Tris-HCl buffer containing 150 mM NaCl and 100 mM EDTA at pH 7.4 prior to performing σ1 and σ2 receptor binding assays Procedures for isolating the membrane homogenates and performing the σ1 and σ2 receptor binding assays have been described in detail previously (Xu, J., et al., Eur. J. Pharmacol. […] (1-3): 8-17, 2005). Briefly, the σ1 receptor binding assays can be conducted in 96-well plates using guinea pig brain membrane homogenates (˜300 μg protein) and ˜5 nM [^3H](+)-pentazocine (34.9 Ci/mmol, Perkin Elmer, Boston, Mass.). The total incubation time can be 90 min at room temperature. Nonspecific binding can be determined from samples that contain 10 μM of cold haloperidol. After 90 min, the reaction can be terminated by the addition of 150 μL of ice-cold wash buffer (10 mM Tris-HCl, 150 mM NaCl, pH 7.4) using a 96 channel transfer pipette (Fisher Scientific, Pittsburgh, Pa.). The samples can be harvested and filtered rapidly through a 96-well fiber glass filter plate (Millipore, Billerica, Mass.) that has been presoaked with 100 μL of 50 mM Tris-HCl buffer at pH 8.0 for 1 h. Each filter can be washed 3 times with 200 μL of ice-cold wash buffer, and the filter can be counted in a Wallac 1450 MicroBeta liquid scintillation counter (Perkin Elmer, Boston, Mass.).
(§3) Data from the competitive inhibition experiments can be modeled using nonlinear regression analysis to determine the concentration that inhibits 50% of the specific binding of the radioligand (IC50 value). Competitive curves can be best fit to a one-site fit and give pseudo-Hill coefficients of 0.6-1.0. Ki values can be calculated using the method of Cheng and Prusoff (Biochem. Pharmacol. 22: 3099-3108, 1973) and can be presented as the mean±1 SEM. For these calculations, one can use a Kd value of 7.89 nM for [^3H](+)-pentazocine and guinea pig brain; for [^3H]DTG and rat liver, for example 30.73 nM.

[2] = molecular target: T2, σ2 receptor (Rattus norvegicus, UniProt Q5U3Y7); assay: σ2 receptor binding assay, [3H]DTG competition in the presence of (+)-pentazocine; conditions: for Ki: rat liver membrane homogenates, ~5 nM [3H]DTG with 1 μM (+)-pentazocine, mean ± SEM, read-out: σ2 binding affinity (Ki); for Ratio (σ1/σ2): ratio of Ki σ1 to Ki σ2
T2 construct: using rat liver membrane homogenates (˜300 μg protein); from tissue; host or cells: rat liver membrane homogenate
T2 sequence (Q5U3Y7 1-176): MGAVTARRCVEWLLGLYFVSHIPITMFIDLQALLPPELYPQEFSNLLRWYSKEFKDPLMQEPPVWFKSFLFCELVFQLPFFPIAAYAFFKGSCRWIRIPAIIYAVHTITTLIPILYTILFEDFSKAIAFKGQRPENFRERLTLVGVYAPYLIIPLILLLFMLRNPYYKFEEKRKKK
Protocol: as §1, §2
σ2 receptor binding assays can be conducted using rat liver membrane homogenates (˜300 μg protein) and ˜5 nM [^3H]DTG (58.1 Ci/mmol, Perkin Elmer, Boston, Mass.) in the presence of 1 μM (+)-pentazocine. The incubation time can be […] at room temperature. Nonspecific binding can be determined from samples that contain 10 μM of cold haloperidol. All other procedures can be identical to those described for the σ1 receptor binding assay above.
as §3

[3] = system: EMT-6 mouse mammary adenocarcinoma tumor; assay: Biodistribution / tumor uptake of 18F-labeled compounds in tumor-bearing mice; type: in vivo; conditions: EMT-6 tumor-bearing female Balb/c mice, versus non-pegylated analog (m=1; X1=H; X2=Br), FIG. 2
Protocol: This example illustrates in vivo evaluation of compounds of the present teachings. All animal experiments can be conducted in compliance with the Guidelines for the Care and Use of Research Animals established by Washington University's Animal Studies Committee. EMT-6 mouse mammary adenocarcinoma cells (5×10^5 cells in 100 uL of phosphate-buffered saline) can be implanted subcutaneously in the scapular region of female Balb/c mice (˜2-month old and 17-22 g; Charles River Laboratories). The biodistribution studies can be initiated 7-10 days after implantation when the tumor size can be ˜0.2 cm^3 (˜200 mg).
For biodistribution studies, 10-120 μCi of an [^18F]-radiolabeled pegylated compound of the present teachings in 100-150 uL of saline can be injected via the tail vein into EMT-6 tumor-bearing female Balb/c mice. Groups of at least 4 mice can be used for each time point. At 5, 30, 60, and 120 min after injection, the mice can be euthanized, and samples of blood, lung, liver, kidney, muscle, fat, heart, brain, bone and tumor can be removed, weighed and counted in a Beckman Gamma 8000 well counter. After counting, the percentage of the injected dose per gram of tissue (% ID/g) can be calculated. The tumor/organ ratios can be calculated by dividing the % ID/g of the tumor by the % ID/g of each organ.
This example illustrates tumor uptake of ^18F-labeled pegylated compounds 6c, 6d and 6g versus a nonpegylated analog (m=1; X1=H; X2=Br).
In these experiments, various ^18F-labeled pegylated compounds of the present teachings as well as a non-pegylated analog were administered to tumor-bearing mice as described in Example 22. The pegylated compounds tested,
[drawing 27] were 6c (m=2; X1=H; X2=Br), 6d (m=3; X1=H; X2=Br) and 6g (m=2; X1=OCH3; X2=Br). A non-pegylated analog (m=1; X1=H; X2=Br) was also tested.

[4] = molecular target: σ1 receptors (Homo sapiens, UniProt Q99720); conditions: stated in words with literature references; cited from earlier work
σ1 receptors, sequence (Q99720 whole entry): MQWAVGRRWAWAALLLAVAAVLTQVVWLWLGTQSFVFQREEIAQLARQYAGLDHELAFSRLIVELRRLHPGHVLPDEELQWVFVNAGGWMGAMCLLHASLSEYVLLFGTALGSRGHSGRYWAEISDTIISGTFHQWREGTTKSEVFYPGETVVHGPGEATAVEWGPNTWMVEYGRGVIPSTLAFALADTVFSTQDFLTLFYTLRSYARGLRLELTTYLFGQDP

[5] = molecular target: σ2 receptors (Homo sapiens, UniProt Q5BJF2); conditions: stated in words with literature references; cited from earlier work
σ2 receptors, sequence (Q5BJF2 whole entry): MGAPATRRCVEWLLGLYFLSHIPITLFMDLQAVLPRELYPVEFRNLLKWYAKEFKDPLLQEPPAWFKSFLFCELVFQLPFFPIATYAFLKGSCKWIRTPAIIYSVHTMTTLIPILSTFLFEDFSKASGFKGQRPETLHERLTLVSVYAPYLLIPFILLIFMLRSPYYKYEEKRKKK

In the case of `COc1cc2c(cc1OC)CN(CCCCNC(=O)c1cc(Br)cc(OC)c1OCCOCCF)CC2` [6g, 5-bromo-N-(4-(6,7-dimethoxy-3,4-dihydroisoquinolin-2(1H)-yl)butyl)-2-(2-(2-fluoroethoxy)ethoxy)-3-methoxybenzamide], the Ki [1] is reported as 669 ± 101 nM, the Ki [2] is reported as 4.67 ± 0.6 nM and the “Ratio (σ1/σ2)” value [2] is reported as 143. The rate of washout [3] was “slower rate of washout” and the tumor uptake [3] was “higher tumor uptake compared to the non-pegylated analog”.
In the case of `O=C(Cc1cccc(Br)c1)NC1CCN(Cc2ccc(F)cc2)CC1` [Yun-143, N-(4-fluorobenzyl)piperidinyl-4-(3-bromophenyl)acetamide], the “affinity for σ1 receptors” value [4] is given as “high affinity” and the “affinity for σ2 receptors” value [5] is given as “high affinity”.
In the case of `COc1cc2c(cc1OC)CN(CCCCNC(=O)c1cc(Br)ccc1OCCOCCOCCF)CC2` [6d, 5-Bromo-N-(4-(6,7-dimethoxy-3,4-dihydroisoquinolin-2(1H)-yl)butyl)-2-(2-(2-(2-fluoroethoxy)ethoxy)ethoxy)benzamide], the Ki [1] is reported as 1010 nM, the Ki [2] is reported as 9.8 ± 0.4 nM and the “Ratio (σ1/σ2)” value [2] is reported as 103. For the same compound, the rate of washout [3] was “slower rate of washout” and the tumor uptake [3] was “higher tumor uptake compared to the non-pegylated analog”.
For `COc1cc2c(cc1OC)CN(CCCCNC(=O)c1cc(I)ccc1OCCOCCF)CC2` [6e], the Ki [1] was 451 ± 56 nM, the Ki [2] was 6.29 ± 0.6 nM and the “Ratio (σ1/σ2)” value [2] was 72.
With `COc1cc2c(cc1OC)CN(CCCCNC(=O)c1cc(Br)ccc1OCCOCCF)CC2` [6c, 5-Bromo-N-(4-(6,7-dimethoxy-3,4-dihydroisoquinolin-2(1H)-yl)butyl)-2-(2-(2-fluoroethoxy)ethoxy)benzamide] the Ki [1] was 1040 nM, the Ki [2] was 1.38 ± 0.2 nM and the “Ratio (σ1/σ2)” value [2] was 755. The rate of washout [3] was “slower rate of washout” and the tumor uptake [3] was “higher tumor uptake compared to the non-pegylated analog”.
With `COc1cc2c(cc1OC)CN(CCCCNC(=O)c1cc(C)ccc1OCCOCCF)CC2` [6a, N-(4-(6,7-dimethoxy-3,4-dihydroisoquinolin-2(1H)-yl)butyl)-2-(2-(2-fluoroethoxy)ethoxy)-5-methylbenzamide] the Ki [1] was 277 ± 38 nM, the Ki [2] was 6.75 ± 0.9 nM and the “Ratio (σ1/σ2)” value [2] was 41.
With `COc1cc2c(cc1OC)CN(CCCCNC(=O)c1cc(I)ccc1OCCOCCOCCF)CC2` [6f, N-(4-(6,7-dimethoxy-3,4-dihydroisoquinolin-2(1H)-yl)butyl)-2-(2-(2-(2-fluoroethoxy)ethoxy)ethoxy)-5-iodobenzamide] the Ki [1] was 1280 nM, the Ki [2] was 7.47 ± 1.2 nM and the “Ratio (σ1/σ2)” value [2] was 171.
With `COc1cc2c(cc1OC)CN(CCCCNC(=O)c1cc(C)ccc1OCCOCCOCCF)CC2` [6b, N-(4-(6,7-dimethoxy-3,4-dihydroisoquinolin-2(1H)-yl)butyl)-2-(2-(2-(2-fluoroethoxy)ethoxy)ethoxy)-5-methylbenzamide] the Ki [1] was 1920 nM, the Ki [2] was 10.1 ± 0.4 nM and the “Ratio (σ1/σ2)” value [2] was 190.
In the case of `COc1cc2c(cc1OC)CN(CCCCNC(=O)c1cc(Br)cc(OC)c1OCCOCCOCCF)CC2` [6h], the Ki [1] is reported as 9100 nM, the Ki [2] is reported as 33 nM and the “Ratio (σ1/σ2)” value [2] is reported as 276.
